Results from the CheMixHub viscosity set.
Values joined by “and” are separate entries in the source; they are usually repeats but may differ in a detail not shown here. Equal values may be shown once.

Assay: xn = mol fraction of the nth substance listed

CCCC[n+]1ccn(C)c1.O=[N+]([O-])[O-] + CCO
101 kPa
Details	viscosity [mPa·s]
293.15 K, x1 = 0.8	73.11
303.15 K, x1 = 0.6	22.05

CCOS(=O)(=O)[O-].CC[N+](CC)=C(N(C)C)N(C)C + CCO
viscosity [mPa·s], 100 kPa
Details	x1 = 0.1001	x1 = 0.2003	x1 = 0.2998	x1 = 0.4023	x1 = 0.4998	x1 = 0.6016	x1 = 0.6979	x1 = 0.8024	x1 = 0.8974
293.15 K	2.916	5.857	11.49	20.43	32.82	54.53	82.56	121	160.5
298.15 K	2.62	5.197	9.941	17.2	27.12	43.51	64.03	91.64	119.1
303.15 K	2.373	4.64	8.688	14.71	22.61	35.19	50.61	70.75	90.75
308.15 K	2.155	4.166	7.649	12.71	19.18	29.07	40.85	55.99	70.53
313.15 K	1.964	3.765	6.793	11.08	16.48	24.39	33.63	45.19	56.15
318.15 K	1.797	3.419	6.036	9.76	14.28	20.68	27.81	36.81	45.06
323.15 K	1.649	3.118	5.43	8.634	12.47	17.74	23.62	30.6	36.93

COC(=O)c1ccccc1 + CCO
viscosity [mPa·s], 100 kPa
Details	x1 = 0.05	x1 = 0.1	x1 = 0.2	x1 = 0.3	x1 = 0.4	x1 = 0.5	x1 = 0.6	x1 = 0.65	x1 = 0.8	x1 = 0.9
293.2 K	1.178	1.178	1.207	1.26	1.325	1.402	1.489	1.536	1.701	1.842
298.2 K	1.074	1.076	1.102	1.15	1.208	1.276	1.355	1.397	1.542	1.667
303.2 K	0.98	0.983	1.008	1.052	1.106	1.167	1.238	1.276	1.408	1.518
308.2 K	0.896	0.901	0.925	0.966	1.015	1.072	1.137	1.17	1.291	1.391
313.2 K	0.822	0.827	0.851	0.89	0.936	0.988	1.047	1.079	1.188	1.279

Oc1cccc(Cl)c1 + CCO
Details	viscosity [mPa·s]
298.15 K, 101 kPa, x1 = 0.5	1.45

CCOCCOCCOCC + CCOC(=O)OCC
viscosity [mPa·s], 101.33 kPa
Details	298.15 K	308.15 K	318.15 K
x1 = 0.0221	0.763	0.667	0.584
x1 = 0.0409	0.776	0.675	0.592
x1 = 0.0945	0.812	0.699	0.609
x1 = 0.1858	0.863	0.741	0.643
x1 = 0.2214	0.89	0.758	0.656
x1 = 0.2775	0.923	0.784	0.677
x1 = 0.3669	0.972	0.822	0.707
x1 = 0.4971	1.041	0.879	0.747
x1 = 0.5997	1.092	0.917	0.775
x1 = 0.6836	1.133	0.947	0.801
x1 = 0.7747	1.17	0.979	0.825
x1 = 0.8683	1.214	1.009	0.849
x1 = 0.9296	1.239	1.027	0.862
x1 = 0.9694	1.255	1.04	0.871

O=C(OCc1ccccc1)c1ccccc1 + CCOC(=O)c1ccccc1
298.15 K, 101 kPa
Details	viscosity [mPa·s]
x2 = 0.0465	8.039
x2 = 0.1549	6.898
x2 = 0.2475	6.108
x2 = 0.2973	5.695
x2 = 0.3945	4.948
x2 = 0.5054	4.309
x2 = 0.5941	3.74
x2 = 0.6906	3.249
x2 = 0.8023	2.749
x2 = 0.8963	2.371

O=C(OCc1ccccc1)c1ccccc1 + CCOC(=O)c1ccccc1C(=O)OCC
313.15 K, 101.33 kPa
Details	viscosity [mPa·s]
x1 = 0.25	5.87
x1 = 0.5	5.54
x1 = 0.75	5.27

O=C(OCc1ccccc1)c1ccccc1 + CCOC(C)=O
298.15 K, 101 kPa
Details	viscosity [mPa·s]
x2 = 0.0784	7.003
x2 = 0.1426	5.938
x2 = 0.2347	4.711
x2 = 0.3002	3.881
x2 = 0.4001	3.047
x2 = 0.5	2.299
x2 = 0.5863	1.789
x2 = 0.6973	1.275
x2 = 0.799	0.9116
x2 = 0.898	0.6406

CCNCCO + CCOCCOCCOCC
viscosity, 101.3 kPa
Details	x1 = 0.313	x1 = 0.548	x1 = 0.732	x1 = 0.879	x2 = 0.1906	x2 = 0.3546	x2 = 0.5618
293.15 K	1.74 mPa·s	2.601 mPa·s and 2.603 mPa·s	4.275 mPa·s	7.482 mPa·s	5.481 mPa·s	3.2 mPa·s	2.028 mPa·s
303.15 K	1.397 mPa·s	2.007 mPa·s and 2.027 mPa·s	3.137 mPa·s	5.176 mPa·s	3.902 mPa·s	2.422 mPa·s	1.604 mPa·s
313.15 K	1.14 mPa·s	1.584 mPa·s and 1.616 mPa·s	2.372 mPa·s	3.717 mPa·s	2.88 mPa·s	1.867 mPa·s	1.291 mPa·s
323.15 K	0.9463 mPa·s	1.276 mPa·s and 1.317 mPa·s	1.844 mPa·s	2.764 mPa·s	2.189 mPa·s	1.478 mPa·s	1.056 mPa·s
